In the supplement of paper PMC11061612:

Key:
[1] = tested on: OE21 (Esophageal Squamous Cell Carcinoma); assay: combination Emax (second highest fraction inhibited in the dose matrix, 72 h); higher = more inhibition; extreme values may be limits of the assay
In short: (§1)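 After 24 hours at 37°C and 5% CO2 in 1536-well plates, cells in DMEM/F12 or RPMI plus 10% FBS received two-drug dose matrices for 72 hours. Viability came from CellTiter-Glo 2.0 luminescence and was scaled as inhibition, anchored at 0 by vehicle wells and at 1 by blank wells. Combination Emax is taken as the second-highest inhibition in the matrix, and Bliss excess as the observed combination effect less EA + EB − EA·EB, with EA and EB the single-agent effects.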

[2] = tested on: HuH-7 (Hepatocellular Carcinoma); assay: as above
In short: as §1

LOXIMVI (Melanoma) [3] = assay: as above
In short: as §1

[4] = tested on: KMRC-20 (Kidney Carcinoma); assay: as above
In short: as §1

CAL-72 (Osteosarcoma) [5] = assay: as above
In short: as §1

[6] = tested on: OE21 (Esophageal Squamous Cell Carcinoma); assay: Bliss excess, mean over the matrix (fraction); higher = more synergy
In short: as §1

LOXIMVI (Melanoma) [7] = assay: as above
In short: as §1

[8] = tested on: KYAE-1 (Esophageal Adenocarcinoma); assay: as above
In short: as §1

[9] = tested on: Detroit562 (Head and Neck Carcinoma); assay: as above
In short: as §1

NCI-H2052 (Mesothelioma) = assay: as above
In short: as §1

MPP-89 (Mesothelioma) = assay: as above
In short: as §1

[10] = tested on: KMRC-20 (Kidney Carcinoma); assay: as above
In short: as §1

EW-11 (Ewing's Sarcoma) = assay: as above
In short: as §1

[11] = tested on: LCLC-97TM1 (Non-Small Cell Lung Carcinoma); assay: as above
In short: as §1

NCI-H2722 (Mesothelioma) = assay: as above
In short: as §1

CAL-72 (Osteosarcoma) [12] = assay: as above
In short: as §1

[13] = tested on: OV-56 (Ovarian Carcinoma); assay: as above
In short: as §1

[14] = tested on: SAS (Oral Cavity Carcinoma); assay: as above
In short: as §1

[15] = tested on: SW1710 (Bladder Carcinoma); assay: as above
In short: as §1

[16] = tested on: OVCAR-5 (Ovarian Carcinoma); assay: as above
In short: as §1
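Throughout, for Bliss excess, mean over the matrix: after 72 h of two-drug dosing.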

| Structure (SMILES) | combination Emax [1] | combination Emax [2] | combination Emax (LOXIMVI (Melanoma) [3]) | combination Emax [4] | combination Emax (CAL-72 (Osteosarcoma) [5]) | Bliss excess [6] | Bliss excess (LOXIMVI (Melanoma) [7]) | Bliss excess [8] | Bliss excess [9] | Bliss excess (NCI-H2052 (Mesothelioma)) | Bliss excess (MPP-89 (Mesothelioma)) | Bliss excess [10] | Bliss excess (EW-11 (Ewing's Sarcoma)) | Bliss excess [11] | Bliss excess (NCI-H2722 (Mesothelioma)) | Bliss excess (CAL-72 (Osteosarcoma) [12]) | Bliss excess [13] | Bliss excess [14] | Bliss excess [15] | Bliss excess [16] |
| --- | --- | --- | --- | --- | --- | --- | --- | --- | --- | --- | --- | --- | --- | --- | --- | --- | --- | --- | --- | --- |
| CC(=O)Nc1cccc(-n2c(=O)n(C3CC3)c(=O)c3c(Nc4ccc(I)cc4F)n(C)c(=O)c(C)c32)c1 [Trametinib] + Cc1nc(-c2cn3c(n2)-c2ccc(-c4cnn(C(C)(C)C(N)=O)c4)cc2OCC3)n(C(C)C)n1 [Taselisib] (first compound max 1 µM, 7x7, partner max 10 µM) | 0.952 | 0.977 | 1 | 0.593 | 0.85 | 0.147 | 0.137 | 0.0462 | 0.108 | -0.0231 | 0.103 | 0.0506 | 0.0443 | 0.0752 | -0.0078 | -0.0264 | -0.0025 | 0.145 | 0.016 | 0.105 |
| CC1(C)CCC(CN2CCN(c3ccc(C(=O)NS(=O)(=O)c4ccc(NCC5CCOCC5)c([N+](=O)[O-])c4)c(Oc4cnc5[nH]ccc5c4)c3)CC2)=C(c2ccc(Cl)cc2)C1 [Venetoclax] + C1CN(CCC1(C(=O)N[C@@H](CCO)C2=CC=C(C=C2)Cl)N)C3=NC=NC4=C3C=CN4 [Capivasertib] (first compound max 1 µM, 7x7, partner max 3 µM) | 0.48 | 0.17 | 0.247 | 0.294 | 0.554 | -0.009 | -0.0142 | -0.0582 | -0.0191 | -0.0269 | -0.0361 | -0.0172 | -0.0335 | -0.033 | -0.0671 | -0.04 | -0.0323 | 0.0016 | -0.0896 | -0.0649 |
| CC1(C)CCC(CN2CCN(c3ccc(C(=O)NS(=O)(=O)c4ccc(NCC5CCOCC5)c([N+](=O)[O-])c4)c(Oc4cnc5[nH]ccc5c4)c3)CC2)=C(c2ccc(Cl)cc2)C1 [Venetoclax] + C=CCn1c(=O)c2cnc(Nc3ccc(N4CCN(C)CC4)cc3)nc2n1-c1cccc(C(C)(C)O)n1 [AZD1775] (first compound max 1 µM, partner max 1 µM) | 0.636 | 0.386 | 0.622 | 0.627 | 0.924 | 0.0095 | 0.0417 | -0.033 | -0.0478 | -0.0145 | 0.1 | -0.044 | 0.0341 | -0.0364 | -0.0631 | 0.0256 | -0.0114 | -0.0073 | -0.0519 | 0.0332 |
| CC1(C)CCC(CN2CCN(c3ccc(C(=O)NS(=O)(=O)c4ccc(NCC5CCOCC5)c([N+](=O)[O-])c4)c(Oc4cnc5[nH]ccc5c4)c3)CC2)=C(c2ccc(Cl)cc2)C1 [Venetoclax] + CCN(CCO)CCCOc1ccc2c(Nc3cc(CC(=O)Nc4cccc(F)c4)[nH]n3)ncnc2c1 [AZD2811] (first compound max 1 µM, 7x7, partner max 1 µM) | 0.159 | 0.194 | 0.21 | 0.2 | 0.673 | 0.0005 | 0.0139 | -0.0002 | -0.013 | -0.0112 | -0.0093 | -0.0273 | -0.0186 | -0.0053 | -0.0269 | -0.0984 | 0.0214 | 0.009 | 0.0032 | -0.0482 |
| CC1(C)CCC(CN2CCN(c3ccc(C(=O)NS(=O)(=O)c4ccc(NCC5CCOCC5)c([N+](=O)[O-])c4)c(Oc4cnc5[nH]ccc5c4)c3)CC2)=C(c2ccc(Cl)cc2)C1 [Venetoclax] + CN(C)CCCOc1ccc(-c2ccc3ncc4c(c3c2)n(C2CCOCC2)c(=O)n4C)cn1 [AZD0156] (first compound max 1 µM, 7x7, partner max 1 µM) | 0.162 | 0.26 | 0.588 | 0.201 | 0.687 | -0.0165 | 0.0539 | -0.0166 | -0.0214 | -0.0184 | -0.0182 | -0.0023 | 0.0067 | -0.0466 | -0.081 | -0.0002 | 0.0022 | -0.033 | -0.0264 | -0.0195 |
| CC1(C)CCC(CN2CCN(c3ccc(C(=O)NS(=O)(=O)c4ccc(NCC5CCOCC5)c([N+](=O)[O-])c4)c(Oc4cnc5[nH]ccc5c4)c3)CC2)=C(c2ccc(Cl)cc2)C1 [Venetoclax] + COc1cc(Nc2ncc3c(n2)-c2ccc(Cl)cc2C(c2c(F)cccc2OC)=NC3)ccc1C(=O)O [Alisertib] (first compound max 1 µM, 7x7, partner max 10 µM) | 0.382 | 0.791 | 0.5 | 0.654 | 0.591 | 0.0433 | -0.0332 | -0.119 | -0.043 | -0.0169 | -0.0556 | 0.0226 | 0.0369 | 0.0449 | -0.0855 | -0.049 | 0.001 | -0.0842 | -0.0425 | -0.0703 |
| CC1(C)CCC(CN2CCN(c3ccc(C(=O)NS(=O)(=O)c4ccc(NCC5CCOCC5)c([N+](=O)[O-])c4)c(Oc4cnc5[nH]ccc5c4)c3)CC2)=C(c2ccc(Cl)cc2)C1 [Venetoclax] + C[C@@H]1COCCN1C2=NC(=NC(=C2)C3(CC3)[S@](=N)(=O)C)C4=C5C=CNC5=NC=C4 [AZD6738] (first compound max 1 µM, 7x7, partner max 10 µM) | 0.828 | 0.424 | 0.723 | 0.665 | 0.902 | -0.0357 | -0.011 | -0.0387 | -0.0505 | -0.0406 | -0.0226 | -0.0047 | 0.0321 | -0.0506 | -0.0405 | -0.0313 | -0.0475 | 0.0194 | -0.0404 | -0.0717 |
| CC1(C)CCC(CN2CCN(c3ccc(C(=O)NS(=O)(=O)c4ccc(NCC5CCOCC5)c([N+](=O)[O-])c4)c(Oc4cnc5[nH]ccc5c4)c3)CC2)=C(c2ccc(Cl)cc2)C1 [Venetoclax] + C[C@@H](Nc1cc(F)cc(F)c1)c1cc(C(=O)N(C)C)cc2c(=O)cc(N3CCOCC3)oc12 [AZD8186] (first compound max 1 µM, 7x7, partner max 3 µM) | 0.109 | 0.144 | 0.129 | 0.245 | 0.406 | -0.0166 | -0.0243 | -0.0358 | -0.0336 | -0.0266 | -0.0096 | -0.0195 | -0.0227 | -0.0368 | -0.0546 | -0.0042 | -0.0178 | -0.0332 | -0.0826 | -0.0495 |
| CC1(C)CCC(CN2CCN(c3ccc(C(=O)NS(=O)(=O)c4ccc(NCC5CCOCC5)c([N+](=O)[O-])c4)c(Oc4cnc5[nH]ccc5c4)c3)CC2)=C(c2ccc(Cl)cc2)C1 [Venetoclax] + Cc1cc2ncnn2cc1Nc1ncc2c(n1)n(C1CCOCC1)c(=O)n2C [AZD7648] (first compound max 1 µM, 7x7, partner max 10 µM) | 0.206 | 0.221 | 0.254 | 0.288 | 0.643 | -0.0076 | -0.0277 | -0.0128 | -0.0205 | -0.0019 | 0.0173 | 0.0019 | 0.0082 | -0.0144 | -0.042 | -0.0713 | 0.0016 | -0.0055 | -0.0217 | -0.075 |
| CC1(C)CCC(CN2CCN(c3ccc(C(=O)NS(=O)(=O)c4ccc(NCC5CCOCC5)c([N+](=O)[O-])c4)c(Oc4cnc5[nH]ccc5c4)c3)CC2)=C(c2ccc(Cl)cc2)C1 [Venetoclax] + Cn1cnc2c(F)c(Nc3ccc(Br)cc3Cl)c(C(=O)NOCCO)cc21 [Selumetinib] (first compound max 1 µM, 7x7, partner max 3 µM) | 0.337 | 0.122 | 0.571 | 0.217 | 0.403 | 0.0044 | -0.0228 | -0.028 | -0.0516 | -0.0126 | -0.0235 | 0.0022 | -0.0583 | -0.0023 | -0.0741 | -0.0593 | -0.0188 | -0.0533 | -0.0134 | -0.069 |
